The text below walks through data of US6566349B1 (priority 2000, dated 2003).

Like-named read-outs stand apart in the source and are kept apart here.

Assay [1] has as its system Thrips. It counts as in vivo.
For assay [2], the system named is Bandedwinged Whitefly. The conditions noted are these: in vivo.
In assay [3] the test system is Bandedwinged Whitefly. To be noted: in vivo. The source holds these as a separate data set.
Assay [4] relates to Tobacco Budworm. The assay can be described thus: Tobacco budworm boll damage in cotton. It counts as in vivo, tobacco budworm (Heliothis virescens). The conditions noted are these: 50 bolls, lb./A: chlorpyrifos + dimethoate 0.62, chlorpyrifos 0.50, Dash 2.0, control 45.
In assay [5] the test system is diamondback moth (Plutella xylostelia). The assay can be described thus: Control of cabbage pests in cabbage: diamondback moth. The assay is classed as in vivo.
The subject of assay [6] is imported cabbageworm (Pieris rapae). The assay can be described thus: Control of cabbage pests in cabbage: imported cabbageworm. The assay is classed as in vivo.
For assay [7], the system named is cabbage looper (Trichoplasia ni). The assay can be described thus: Control of cabbage pests in cabbage: cabbage looper. The assay is classed as in vivo.
The subject of assay [8] is Fall Armyworm. The assay can be described thus: Control of fall armyworm in sweet corn. It counts as in vivo, fall armyworm (S. fruqiperda).
Assay [9] deals with Beet Armyworm. The assay can be described thus: Control of beet armyworm in sweet corn. It counts as in vivo, beet armyworm (Spodoptera exigua).
The test system of assay [10] is Beet Armyworm. The assay can be described thus: Control of beet armyworm in cotton. The assay is classed as in vivo, beet armyworm (Spodoptera exigua).
The test system of assay [11] is cotton aphid. The assay is classed as in vivo.
The test system of assay [12] is cotton aphid. It counts as in vivo. To be noted: for Cotton aphid count 2 days after treatment: 5 leaves per plot, untreated 1277; for Cotton aphid count 2 days after treatment / Cotton aphid % control 2 days after treatment: lb./A: methyl parathion 0.5, oxydemeton-methyl 0.25, Dash 2.0, 53 gallons/A.
For assay [13], the system named is Colorado Potato Beetle (Leptinotarsa decemlineata). The assay can be described thus: Control of Colorado potato beetle in potatoes. The assay is classed as in vivo. To be noted: adjuvant 0.88 lb/A where added; for Total Number of larvae from a six meter plot, 3 DAT L2 / Total Number of larvae from a six meter plot, 7 DAT L2: first and second instar; for Total Number of larvae from a six meter plot, 3 DAT L4 / Total Number of larvae from a six meter plot, 7 DAT L4: third and fourth instar. From the text: The efficacy of Guthion™ (azinphosmethyl) alone and in combination with Dash HC® against the Colorado Potato Beetle (Leptinotarsa decemlineata) on potatoes. The test plot area was monitored for the presence of significant naturally occurring populations of the target pest, Colorado potato beetle (CPB). At the critical pest population threshold, treatments were applied to 6 meter, single row plots of the crop using a CO2 pressurized backpack sprayer.
Treatments were sprayed on potatoes in the early bloom stage to a mature population of the Colorado potato beetle. Larvae were evaluated in two classes: class one=first and second instar larvae, class two=third and fourth instar. Population counts were taken at 3 and 7 days after treatment. Trial results can be seen in Table 8.
Azinphosmethyl was applied at a rate of 0.375 lb ai/A. The recommended rate for CPB control. The insecticide was combined with water at a rate of 64.1 gal/acre. […].
Azinphosmethyl was applied at a rate of 0.30 lb ai/A. This is a 20% reduction below the recommended rate for CPB control. The insecticide was combined with water at a rate of 64.1 gal/Acre.
Azinphosmethyl was applied at a rate of 0.19 lb ai/A. This is ½ of the recommended label rate for CPB control. The insecticide was combined with water at a rate of 64.1 gal/acre.
Azinphosmethyl was applied at a rate of 0.375 lb ai/A. The recommended rate for CPB control. The insecticide was combined with water at a rate of 64.1 gal/a.
Azinphosmethyl was applied at a rate of 0.30 lb ai/A. This is a 20% reduction below the recommended rate for CPB control. The insecticide was combined with water at a rate of 64.1 gal/Acre. […] With the 64.1 gal of water used to deliver the mix, the resultant adjuvant concentration was 0.383%.
Azinphosmethyl was applied at a rate of 0.19 lb ai/A. This is ½ of the recommended label rate for CPB control. The insecticide was combined with water at a rate of 64.1 gal/acre. […] With the 64.1 gal of water used to deliver the mix, the resultant adjuvant concentration was 0.383%.

Setting [14] is: cotton, lb./A: acephate 0.20, dicrotophos 0.20, Dash 2.0.
Setting [15] is: chlorpyrifos 0.62 lb.ai/A, DASH 0.88 lb/a where added.
Setting [16] is: chlorpyrifos 1.0 lb.ai/A, DASH 0.88 lb/a where added.
Where [17] appears, read: chlorpyrifos 1.24 lb.ai/A alone (treatment B), control 2.3.
Setting [18] is: lb./A: chlorpyrifos + dimethoate 0.45, chlorpyrifos 0.94, Dash 2.0.

As to `COP(=O)(NC(C)=O)SC` (stereo not shown) [Acephate, O,S-dimethyl acetylphosphoramidothioate], in [1] (setting [14]), the “Thrips % control, 1 DAT” value is “(80) %”; the “Thrips % control, 5 DAT” value is recorded as “(35) %”; the “Thrips % control, 9 DAT” value is listed as “(44) %”. Also, the “# Thrips/10 Plants, 0 DAT” value in assay [1] (cotton, lb./A: acephate 0.20, dicrotophos 0.20, Dash 2.0, 15 gallons/A, control 252 ± 88) is on record as 174 ± 50. For the same molecule, the “# Thrips/10 Plants, 9 DAT” value in assay [1] (cotton, lb./A: acephate 0.20, dicrotophos 0.20, Dash 2.0, control 36 ± 32) was determined as 20 ± 18. The “# Thrips/10 Plants, 5 DAT” value in [1] (cotton, lb./A: acephate 0.20, dicrotophos 0.20, Dash 2.0, control 65 ± 43) is listed as 42 ± 17. In assay [1] (cotton, lb./A: acephate 0.20, dicrotophos 0.20, Dash 2.0, control 115 ± 50), the “# Thrips/10 Plants, 1 DAT” value was determined as 21 ± 9. Also, in [2], the “# Whitefly adults counted, 7 days after treatment” value is 54; the “Whitefly adults % control, 3 days after treatment” value was “(98) %”; the “Whitefly adults % control, 7 days after treatment” value is reported as “(90) %”. Also, the “Whitefly adults % control, 3 days after treatment” value in [3] is “(98) %”.

For the molecule `CCOP(=S)(OCC)Oc1nc(Cl)c(Cl)cc1Cl` [Chlorpyrifos], the “% Bolls Damaged by Tobacco Budworm 3 DAT” value in assay [4] is 42%. Also, the results for the “# of larvae PLUTMA 4DAT” value in assay [5] (setting [15]), in assay [5] (setting [16]) and in assay [5] (setting [17]) were 0.7, 0.3 and 1.0, respectively. In addition, the “# of larvae PLUTMA 7DAT” value in assay [5] (setting [15]) was 0.3; in [5] (setting [16]), 0; in [5] (chlorpyrifos 1.24 lb.ai/A alone (treatment B), control 1.7), 1.0. The “# of larvae PIERRA 4DAT” value amounted to 0 in [6] (setting [15]); 0 in [6] (setting [16]); 0 in assay [6] (chlorpyrifos 1.24 lb.ai/A alone (treatment B), control 4.7). Moreover, the entries for the “# of larvae PIERRA 7DAT” value in assay [6] (setting [15]), in assay [6] (setting [16]) and in assay [6] (setting [17]) were 0.3, 1.0 and 1.3, respectively. Further, the “# of larvae TRIPNI 4DAT” value in assay [7] (3 plants per plot, chlorpyrifos 1.24 lb.ai/A alone (treatment B), control 1.7) worked out at 0.7; in assay [7] (setting [15]), 2.7; in [7] (setting [16]), 1.3. For the same molecule, the “# of larvae TRIPNI 7DAT” value in [7] (setting [15]) is 0.7; in assay [7] (setting [16]), 2.0; in assay [7] (chlorpyrifos 1.24 lb.ai/A alone (treatment B), control 0.3) it was 0.7. In addition, the “Fall Armyworm % control 4 DAT” value in assay [8] (setting [18]) is 95%. Moreover, in assay [8] (lb./A: chlorpyrifos + dimethoate 0.45, chlorpyrifos 0.94, Dash 2.0, 33 gallons/A, control 5), the “# Fall Armyworm 4 DAT” value amounted to 0.25. The “Beet Armyworm % control 4 DAT” value in assay [9] (setting [18]) was 66%. The “# Beet Armyworm 4 DAT” value in assay [9] (lb./A: chlorpyrifos + dimethoate 0.45, chlorpyrifos 0.94, Dash 2.0, 33 gallons/A, control 3) amounted to 1. For the same molecule, the “beet armyworm control, tankmixed with Dash versus applied alone at the same rates” value in assay [10] (chlorpyrifos at half-to-two-thirds the labeled rate) was “effective and better beet armyworm control when takmixed with Dash than when applied alone”. In [10] (cotton, 13-ft row section, lb./A: chlorpyrifos + dimethoate 0.62, chlorpyrifos 0.50, Dash 2.0, 20 gallons/A, control 112), the “# Beet Armyworms 3 days after treatment” value amounted to 73. In addition, the “Beet Armyworms % control 3 days after treatment” value in assay [10] (cotton, lb./A: chlorpyrifos + dimethoate 0.62, chlorpyrifos 0.50, Dash 2.0) is 38%.

As to `COP(=O)(OC)O/C(C)=C/C(=O)N(C)C` [Dicrotophos], in [1] (in vivo), the “# Thrips/10 Plants, 0 DAT” value was determined as 228 ± 108; the “# Thrips/10 Plants, 1 DAT” value stood at 31 ± 12; the “# Thrips/10 Plants, 5 DAT” value is listed as 36 ± 28; the “# Thrips/10 Plants, 9 DAT” value came to 35 ± 16. Further, in assay [1] (in vivo), the “Thrips % control, 1 DAT” value is “(73) %”; the “Thrips % control, 5 DAT” value was “(45) %”; the “Thrips % control, 9 DAT” value is “(03) %”.

For `CNC(=O)CSP(=S)(OC)OC` [Dimethoate, O,O-dimethyl S-methylcarbamoylmethyl phosphorodithioate], the “aphid control on tank-mixing with the adjuvant” value in [11] (in vivo) is reported as “Improvement in aphid control”. In addition, the “Cotton aphid count 2 days after treatment” value (“Cotton aphid count 2 days” for short) in assay [11] (okra, 20 leaves per plot, lb./A: methyl parathion 0.5, dimethoate 0.25, chlorpyrifos 0.17 + dimethoate 0.14, Dash 2.0, 30 gallons/A, untreated 132) came to 19. The “Cotton aphid % control 2 days after treatment” value (“Cotton aphid % control 2 days” for short) in assay [11] (okra, lb./A: methyl parathion 0.5, dimethoate 0.25, chlorpyrifos 0.17 + dimethoate 0.14, Dash 2.0, 30 gallons/A) is reported as 86%.

With `COP(=S)(OC)Oc1ccc([N+](=O)[O-])cc1` [Methyl parathion, O,O-dimethyl O-(4-nitrophenyl)phosphorothioate], in assay [12], the “Cotton aphid count 2 days” value is given as 293 and the “Cotton aphid % control 2 days” value came to 77%. Further, the “cotton aphid control, tank-mixed with the adjuvant versus applied alone” value in [12] (rates below the recommended maximum rate for aphid control) is listed as “much higher when tank-mixed with the adjuvant than when applied alone”. In [11] (in vivo), the “Cotton aphid % control 2 days” value is recorded as 21 (84) % and the “Cotton aphid count 2 days” value is recorded as 21 (84).

Regarding `CC[S+]([O-])CCSP(=O)(OC)OC` (stereo not shown) [Oxydemeton-methyl], in [12], the “Cotton aphid count 2 days” value is 74 and the “Cotton aphid % control 2 days” value was determined as 94%. Moreover, in assay [12] (in vivo), the “aphid control on tank-mixing with the adjuvant” value is given as “Improvement in aphid control”.

As to `COP(=S)(OC)SCn1nnc2ccccc2c1=O` [azinphosmethyl], the “Total Number of larvae from a six meter plot, 3 DAT L2” value in [13] (azinphosmethyl 0.19 lb ai/A) is listed as 4.0; in assay [13] (azinphosmethyl 0.30 lb ai/A), 5.0; in assay [13] (azinphosmethyl 0.375 lb ai/A, control 29.7), 0.7. Also, the “Total Number of larvae from a six meter plot, 7 DAT L2” value is reported as 1.3 in [13] (azinphosmethyl 0.19 lb ai/A); 1.0 in assay [13] (azinphosmethyl 0.30 lb ai/A); 6.0 in assay [13] (azinphosmethyl 0.375 lb ai/A, control 3.0). Moreover, the “Total Number of larvae from a six meter plot, 3 DAT L4” value in assay [13] (azinphosmethyl 0.19 lb ai/A) amounted to 11.7; in assay [13] (azinphosmethyl 0.30 lb ai/A), 7.7; in assay [13] (azinphosmethyl 0.375 lb ai/A, control 79.3), 12.3. Besides, the “Total Number of larvae from a six meter plot, 7 DAT L4” value in [13] (azinphosmethyl 0.19 lb ai/A) was found to be 6.0; in assay [13] (azinphosmethyl 0.30 lb ai/A) it was 3.0; in [13] (azinphosmethyl 0.375 lb ai/A, control 24.3) it was 5.0.
